Data as given in patent US9107900B2, “Use of dronedarone for the preparation of a medicament for use in the prevention of cardiovascular hospitalization or of morality” (SANOFI, priority 2008, dated 2015).
Where a name gives a salt, the structure may show the parent alone.

Test system: patients having a history of atrial fibrillation or atrial flutter
Assay: prospective, multinational, multicentre, double-blind clinical study versus placebo: cardiovascular hospitalizations and mortality
Assay type: in vivo, human
Experimental: The patients had to have a history of atrial fibrillation or flutter and/or could be in normal sinus rhythm or in atrial fibrillation or flutter at inclusion.
The patient recruitment was carried out by taking into account the following inclusion criteria:
• 1) One of the following risk factors had to be present: • age equal to or greater than 70 years, • hypertension (taking antihypertensives of at least two different classes), • diabetes, • history of cerebral stroke (transient ischemic event or completed cerebral stroke) or of systemic embolism, • left atrial diameter greater than or equal to 50 mm measured by echocardiography, • left ventricular ejection fraction less than 40%, measured by two-dimensional echography; or • age equal to or above 70, or even above 75, possibly combined with at least one of the risk factors below: • hypertension (taking antihypertensives of at least two different classes), • diabetes, • history of cerebral stroke (transient ischemic event or completed cerebral stroke) or of systemic embolism, • left atrial diameter greater than or equal to 50 mm measured by echocardiography, • left ventricular ejection fraction less than 40%, measured by two-dimensional echography; • 2) availability of an electrocardiogram carried out during the past 6 months in order to document the presence or the history of atrial fibrillation or flutter; • 3) availability of an electrocardiogram carried out during the past 6 months in order to document the presence or absence of normal sinus rhythm. […] Criteria Related to a Cardiac Condition: • Patients in permanent atrial fibrillation • Patients in unstable hemodynamic condition such as acute pulmonary edema within 12 hours prior to start of study medication; cardiogenic shock; treatment with IV pressor agents; patients on respirator; congestive heart failure of stage NYHA IV within the last 4 weeks; uncorrected, hemodynamically significant primary obstructive valvular disease; hemodynamically significant obstructive cardomyopathy; a cardiac operation or revascularization procedure within 4 weeks preceding randomization • Planned major non-cardiac or cardiac surgery or procedures including surgery for valvular heart disease, coronary artery bypass graft (CABG), percutaneous coronary intervention (PCI), or on urgent cardiac transplantation list • Acute myocarditis or constrictive pericarditis • Bradycardia<50 bpm and/or PR-interval>0.28 sec on the last 12-lead ECG. • Significant sinus node disease (documented pause of 3 seconds or more) or 2nd or 3rd degree atrioventricular block (AV-block) unless treated with a pacemaker. Criteria Related to Concomitant Medications:
Need of a concomitant medication that is prohibited in this trial, including the requirement for Vaughan Williams Class I and III anti-arrhythmic drugs, that would preclude the use of study drug during the planned study period, i.e. patients have to stop others antiarrhythmics such as Vaughan Williams Class I and III anti-arrhythmic drugs, for example amiodarone, flecamide, propafenone, quinidine, disopyramide, dofetilide, solatol.
• Plasma potassium<3.5 mmol/l (as anti-arrhythmic drugs can be arrhythmogenic in patients with hypokalemia, this must be corrected prior to randomization. • A calculated GFR at baseline<10 ml/min using the Cockroft Gault formula (GFR [ml/min]=(140−AGE [years]*WEIGHT [kilograms]*CONSTANT/CREATININE [μmol/L], where CONSTANT is […]).
Furthermore, the concomitant use of grapefruit juice and all potent inhibitors of CYP3A4 such as ketoconazole were prohibited.
Treatment was initiated using tablets containing either the placebo or an amount of dronedarone hydrochloride corresponding to 400 mg of dronedarone at a rate of twice a day with the morning and evening meal and more specifically at a rate of one tablet in the morning during or shortly after breakfast and one tablet in the evening during or shortly after dinner. […]

[1] = NYHA class III and LVEF below 0.35, stable, 400 mg BID, N = 24
[2] = NYHA class III congestive heart failure, stable hemodynamic condition, vs placebo
[3] = NYHA class III congestive heart failure, stable, vs placebo
[4] = all patients, treated group 2301 of 4628
[5] = all patients, treated group 2301 of 4628, 400 mg twice a day
[6] = congestive heart failure, LVEF below 0.35, stable, vs placebo
[7] = patients with a structural heart disease
[8] = patients with a structural heart disease, vs placebo
[9] = patients with coronary heart disease (668 treated patients)
[10] = patients with coronary heart disease, vs placebo
[11] = patients with permanent atrial fibrillation/flutter, vs placebo

CCCCc1oc2ccc(NS(C)(=O)=O)cc2c1C(=O)c1ccc(OCCCN(CCCC)CCCC)cc1 [dronedarone hydrochloride, 2-n-Butyl-3-[4-(3-di-n-butylaminopropoxy)benzoyl]-5-methylsulphonamidobenzofuran]
HR (95% CI): cardiovascular hospitalization and death (Left atrium diameter >=50 mm (N 955), vs placebo): 0.77 (0.63, 0.94) | decrease of cardiovascular hospitalization and death (Left atrium diameter >=50 mm, vs placebo): 23% | Endpoint's composition: Cardiovascular death [1]: 2 | Endpoint's composition: Cardiovascular hospitalization [1]: 10 | Endpoint's composition: Death from any cause [1]: 3 | Endpoint's composition: Non cardiovascular death [1]: 1 | number of events: death (NYHA class III congestive heart failure, stable (91 treated patients)): 12 events | number of events: cardiovascular hospitalization and death (NYHA class III congestive heart failure, stable hemodynamic condition (91 treated patients)): 40 events | decrease of cardiovascular hospitalization or death [2]: 44% | relative risk: cardiovascular hospitalization or death [2]: 0.56 | decrease of death [3]: 34% | relative risk: death [3]: 0.66 | HR (95% CI): cardiovascular hospitalization and death (Prior cerebrovascular accident or systemic embolism (N 616), vs placebo): 0.80 (0.62, 1.02) | decrease of cardiovascular hospitalization and death (Prior cerebrovascular accident or systemic embolism, vs placebo): 20% | number of arrhythmic deaths (deaths from cardiac arrhythmia) [4]: 26 arrhythmic deaths | number of cardiovascular deaths [4]: 65 cardiovascular deaths | number of deaths: mortality from any cause [4]: 116 deaths | number of events: cardiovascular hospitalizations [4]: 675 events | number of events: cardiovascular hospitalizations and sudden death [4]: 684 events | number of events: cardiovascular hospitalizations for atrial fibrillation or supraventricular arrhythmia [4]: 296 events | number of events: cardiovascular hospitalizations for transient ischemic event or stroke [4]: 43 events | number of events: hospitalizations associated with class IV congestive heart failure [4]: 42 events | number of events: hospitalizations associated with congestive heart failure [4]: 112 events | number of sudden deaths [4]: 14 sudden deaths | number of events: cardiovascular hospitalizations and cardiovascular mortality [5]: 701 events | number of events: cardiovascular hospitalizations and mortality (principal judgement criterion) [5]: 734 events | number of events: death (congestive heart failure, LVEF below 0.35, stable (92 treated patients)): 10 events | decrease of cardiovascular hospitalization or death [6]: 32% | decrease of death [6]: 45% | relative risk: cardiovascular hospitalization or death [6]: 0.68 | relative risk: death [6]: 0.55 | number of events: cardiovascular hospitalization and death (congestive heart failure, left ventricular ejection fraction below 0.35, stable hemodynamic condition (92 treated patients)): 39 events | reduction in the risk of sudden death (patients not taking diuretics, vs placebo): 34% | number of events: cardiovascular hospitalizations and mortality (patients who developed permanent atrial fibrillation/flutter): 29 events | number of events: cardiovascular death [7]: 48 events | number of events: cardiovascular hospitalization [7]: 452 events | number of events: cardiovascular hospitalization or death [7]: 486 events | number of events: death [7]: 77 events | decrease of cardiovascular deaths [8]: 33% | decrease of cardiovascular hospitalization [8]: 24% | decrease of cardiovascular hospitalization or death [8]: 24% | decrease of death [8]: 24% | relative risk: cardiovascular death [8]: 0.67 | relative risk: cardiovascular hospitalization [8]: 0.76 | relative risk: cardiovascular hospitalization or death [8]: 0.76 | relative risk: death [8]: 0.76 | number of events: cardiovascular death [9]: 26 events | number of events: cardiovascular hospitalization [9]: 233 events | number of events: cardiovascular hospitalization or death [9]: 252 events | number of events: death [9]: 39 events | decrease of cardiovascular death [10]: 40% | decrease of cardiovascular hospitalization [10]: 26% | decrease of cardiovascular hospitalization or death [10]: 27% | decrease of death [10]: 36% | relative risk: cardiovascular death [10]: 0.602 | relative risk: cardiovascular hospitalization [10]: 0.740 | relative risk: cardiovascular hospitalization or death [10]: 0.733 | relative risk: death [10]: 0.643 | reduction in cardiovascular hospitalizations and mortality [11]: 33% | relative risk: cardiovascular hospitalizations and mortality [11]: 0.67 | patients who developed permanent atrial fibrillation/flutter (treated group 2301 of 4628, p<0.001 vs placebo (294)): 178 patients | decrease of cardiovascular hospitalization associated with class IV congestive heart failure (vs placebo, all patients): 22% | decrease of cardiovascular hospitalization associated with congestive heart failure (vs placebo, all patients): 14.5% | reduction in cardiovascular hospitalizations (vs placebo, all patients): 25.5% | reduction in cardiovascular hospitalizations and cardiovascular deaths (vs placebo, all patients): 25.5% | reduction in cardiovascular hospitalizations and sudden deaths (vs placebo, all patients): 25.5% | reduction in cardiovascular hospitalizations for atrial fibrillation (vs placebo, all patients): 38.4% | reduction in cardiovascular hospitalizations for transient ischemic event or stroke (vs placebo, all patients): 34% | reduction in cardiovascular mortality (vs placebo, all patients): 30.2% | reduction in sudden death (vs placebo, all patients): 59.5% | reduction in the risk of a first cardiovascular hospitalization not due to a supraventricular arrhythmia (vs placebo, all patients): 14.5% | reduction of arrhythmic death (vs placebo, all patients): 45% | reduction of death (any cause) (vs placebo, all patients): 15.6% | relative risk: arrhythmic death (vs placebo, all patients): 0.55 | relative risk: cardiovascular hospitalizations (vs placebo, all patients): 0.745 | relative risk: cardiovascular hospitalizations and cardiovascular deaths (vs placebo, all patients): 0.745 | relative risk: cardiovascular hospitalizations and sudden deaths (vs placebo, all patients): 0.743 | relative risk: cardiovascular hospitalizations for atrial fibrillation or supraventricular arrhythmia (vs placebo, all patients): 0.616 | relative risk: cardiovascular hospitalizations for transient ischemic event or stroke (vs placebo, all patients): 0.66 | relative risk: cardiovascular mortality (vs placebo, all patients): 0.698 | relative risk: hospitalizations associated with class IV congestive heart failure (vs placebo, all patients): 0.78 | relative risk: hospitalizations associated with congestive heart failure (vs placebo, all patients): 0.855 | relative risk: mortality from any cause (vs placebo, all patients): 0.844 | relative risk: sudden death (vs placebo, all patients): 0.405 | relative risk: cardiovascular hospitalizations and deaths (vs placebo, all patients, 400 mg twice a day): 0.758 | reduction in cardiovascular hospitalizations and deaths (vs placebo, all patients, x=1-relative risk): 24.2%
